Reference: ChEMBL document CHEMBL1201862, “PubChem BioAssay data set” (2004)
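Interpolation was linear, between the two tested concentrations surrounding the appropriate level; five concentrations were tested over 48 hours in 96-well plates. Here, GI50 denotes the concentration required for 50% inhibition of growth.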 The source made the active and inactive calls. Rule as the data show it: active = GI50 up to about 1.1 µM and inactive = higher.

What was measured:
Test in all cases: NCI anticancer screen, dose series, 48 h
786-0 = test system: 786-0
A549 = test system: A549
EKVX = test system: EKVX
HOP-62 = test system: HOP-62
HOP-92 = test system: HOP-92
Hs-578T = test system: Hs-578T
IGROV-1 = test system: IGROV-1
K562 = test system: K562
KM12 = test system: KM12
LOX IMVI = test system: LOX IMVI
MCF7 = test system: MCF7
MDA-MB-435 = test system: MDA-MB-435
MDA-N = test system: MDA-N
NCI-H226 = test system: NCI-H226
NCI-H23 = test system: NCI-H23
RXF 393 = test system: RXF 393
SF-268 = test system: SF-268
SK-MEL-28 = test system: SK-MEL-28
T47D = test system: T47D
UACC-62 = test system: UACC-62

SMILES | GI50 (786-0) | GI50 (A549) | GI50 (EKVX) | GI50 (HOP-62) | GI50 (HOP-92) | GI50 (Hs-578T) | GI50 (IGROV-1) | GI50 (K562) | GI50 (KM12) | GI50 (LOX IMVI) | GI50 (MCF7) | GI50 (MDA-MB-435) | GI50 (MDA-N) | GI50 (NCI-H226) | GI50 (NCI-H23) | GI50 (RXF 393) | GI50 (SF-268) | GI50 (SK-MEL-28) | GI50 (T47D) | GI50 (UACC-62)
CN(C)CCNc1ccc2c(=O)n(CCN(C)C)c(=O)n3c4ccc(N)cc4c(=O)c1c23 | < 0.01 µM (active) | < 0.01 µM (active) | 0.119 µM (active) | 0.109 µM (active) | 0.0807 µM (active) | 0.178 µM (active) | < 0.0124 µM (active) | < 0.01 µM (active) | 0.0644 µM (active) | 0.0775 µM (active) | < 0.012 µM (active) | 0.101 µM (active) | 0.0502 µM (active) | < 0.0215 µM (active) | 0.0361 µM (active) | 0.0769 µM (active) | < 0.0272 µM (active) | 0.24 µM (active) | 0.207 µM (active) | 0.393 µM (active)
Cc1cc(C)c2c(SCc3ccc(Cl)cc3Cl)nc(N)nc2n1 | 17.1 µM (inactive) | 36.3 µM (inactive) | > 100 µM (inactive) | 37.4 µM (inactive) | 15.9 µM (inactive) | 37.8 µM (inactive) | 28.7 µM (inactive) | 22.7 µM (inactive) | > 100 µM (inactive) | 28.9 µM (inactive) | 31.6 µM (inactive) | 83 µM (inactive) | > 100 µM (inactive) | > 100 µM (inactive) | > 100 µM (inactive) | > 100 µM (inactive) | > 100 µM (inactive) | > 100 µM (inactive) | 17.2 µM (inactive) | > 100 µM (inactive)
O=C(O)c1ccc2c(c1C(=O)O)C(=O)OC2(c1ccc(O)cc1)c1ccc(O)cc1 | > 100 µM (inactive) | > 100 µM (inactive) | > 100 µM (inactive) | > 100 µM (inactive) | > 100 µM (inactive) | > 100 µM (inactive) | > 100 µM (inactive) | > 100 µM (inactive) | > 100 µM (inactive) | > 100 µM (inactive) | > 100 µM (inactive) | > 100 µM (inactive) | > 100 µM (inactive) | > 100 µM (inactive) | > 100 µM (inactive) | > 100 µM (inactive) | > 100 µM (inactive) | > 100 µM (inactive) | > 100 µM (inactive) | > 100 µM (inactive)
Cc1cc(N)ccc1C=O | > 100 µM (inactive) | > 100 µM (inactive) | > 100 µM (inactive) | > 100 µM (inactive) | > 100 µM (inactive) | > 100 µM (inactive) | > 100 µM (inactive) | > 100 µM (inactive) | > 100 µM (inactive) | > 100 µM (inactive) | > 100 µM (inactive) | > 100 µM (inactive) | > 100 µM (inactive) | > 100 µM (inactive) | > 100 µM (inactive) | > 100 µM (inactive) | > 100 µM (inactive) | > 100 µM (inactive) | > 100 µM (inactive) | > 100 µM (inactive)
CCOC(=O)c1nc2ccc(C(F)(F)F)cc2nc1Oc1cc(OC)cc(OC)c1 | > 100 µM (inactive) | > 100 µM (inactive) | > 100 µM (inactive) | 65.6 µM (inactive) | 40.1 µM (inactive) | 17 µM (inactive) | 41.7 µM (inactive) | > 100 µM (inactive) | 36.8 µM (inactive) | > 100 µM (inactive) | > 100 µM (inactive) | 77.6 µM (inactive) | > 100 µM (inactive) | 67.8 µM (inactive) |  | > 100 µM (inactive) | 93.3 µM (inactive) | > 100 µM (inactive) | > 100 µM (inactive) | > 100 µM (inactive)
CC(=O)Oc1ccc2c(c1)[nH]c1c3ccc(OC(C)=O)cc3oc(=O)c21 | 48 µM (inactive) | 56.9 µM (inactive) | 34.7 µM (inactive) | 29.3 µM (inactive) | 61.1 µM (inactive) | 31.3 µM (inactive) | 39 µM (inactive) | 26.5 µM (inactive) | 29.1 µM (inactive) |  | 24.9 µM (inactive) | 27.2 µM (inactive) | 33.3 µM (inactive) | 21.8 µM (inactive) | 36.1 µM (inactive) | 26.7 µM (inactive) | 26.9 µM (inactive) | 38 µM (inactive) | 20.4 µM (inactive) | 28.1 µM (inactive)
CCOC(=O)CN1CCNCCN(CC(=O)OCC)CCNCC1 | > 100 µM (inactive) | > 100 µM (inactive) | > 100 µM (inactive) | > 100 µM (inactive) | > 100 µM (inactive) | > 100 µM (inactive) | > 100 µM (inactive) | 80.5 µM (inactive) | > 100 µM (inactive) | > 100 µM (inactive) | > 100 µM (inactive) | > 100 µM (inactive) | > 100 µM (inactive) | > 100 µM (inactive) |  | > 100 µM (inactive) |  | > 100 µM (inactive) | > 100 µM (inactive) | > 100 µM (inactive)
